For one series, the target named is T1, 647-RhoA (Homo sapiens, UniProt P61586).
T1 construct: made in house
Briefly: Microscale thermophoresis (MST) with 647-RhoA. It is filed as binding. The settings on record: for Kd: mean ± SEM. As for the experimental part:
(§1) The final concentration of GFP-AKAP-Lbc/DHPH was set to 150 nM, 95% LED and 80% MST laser power. […] The samples were incubated in the dark for 1 h incubation at room temperature, and measured with 30 sec laser-on and 5 sec laser-off time at a Monolith NT.115 device (NanoTemper). Measured fluorescence (F) was normalised (Fhot/Fcold = Fsteady state/Finitial state, Fig 3). Values of thermophoresis + T-jump were related to average of each measurement row (16 capillaries). Final values are given as ‰.
(§2) Fig 4 The Scaff10 derivative Scaff10-8 binds to RhoA but not to the DHPH domain of AKAP-Lbc. (A-D) Microscale thermophoresis (MST) takes advantage of the phenomenon of directed movement of particles in a temperature gradient. Binding events lead to changes in the hydration shell of biomolecules and a relative change of movement of the molecular complex along a temperature gradient. Using such changes, binding affinities can be determined. MST assays were carried out with (A) the recombinant DHPH domain of AKAP-Lbc fused with GFP and RhoA as a ligand and (B) fluorescent 647-RhoA and the His-tagged AKAP-Lbc/DHPH domain as a ligand. (C) MST assays for the analysis of the binding of Scaff10-8 to 647-RhoA. Upper panels: The concentration of fluorescent 647-RhoA remained constant and Scaff10-8 (left) and Scaff10-7 as a negative control (right) were titrated in increasing concentrations. Lower panels: Values of fluorescence corresponding to upper panels. (D) MST assay showing no binding of Scaff10-8 or Scaff10-7 to GFP-DHPH. Upper panels: The concentration of fluorescent GFP-AKAP-Lbc/DHPH remained constant and Scaff10-8 (left) and Scaff10-7 (right) were titrated in increasing concentrations. Lower panels: Values of fluorescence corresponding to upper panels. […] F norm = normalized fluorescence (fluorescence steady state/fluorescence initial state) indicated in ‰. n = 3–5. Mean ± SEM. […] The ligand protein named in each panel heading is used as the substance label, and it is uncertain whether these count as substances.
Background: Microscale thermophoresis detects binding through changes in fluorescence in a small temperature gradient.

The nature of a further series: Nephelometric solubility. It is filed as physicochemical. The conditions noted are these: maximal solubility in DMEM + 10 % FCS. As for the experimental part: Solubility of Scaff10 derivatives was assessed nephelometrically. Scaff10 derivatives are moderately to poorly soluble in aqueous solutions due to their large number of aromatic rings having lipophilic character. Details about NMR, LC/MS and HPLC characterization steps are given in the Supplemental Information.
Suppl. Tab. 3: Overview of all 55 Scaff10 derivatives.Structures labeld with 1 were commercially obtained. MW = molecular weight. logP = calculated partition coefficient (using […]
Solubility was assessed nephelometrically in DMEM + 10 % FCS + Scaff10 derivative with either 0.3 or 2 % DMSO
final concentration; values in µM indicate maximal solubility of the compound under the respective condition. Yield in % indicates total yield of the last step of chemical synthesis
for each of Scaff10 derivatives. n.d. = not determined. n.i. = not indicated.
Scaff10 MW Number of exp. 2 % DMSO 0.3 % DMSO Scaff10 Yield
Structure log P Disruption of the PPI IC50 [µM]
derivative [g/mol] in dupl. [µM] [µM] class [%]

Series [1] concerns the target T2, interaction of AKAP-Lbc/DHPH and RhoA (Homo sapiens, UniProt P61586).
T2 construct: His6-AKAP-Lbc/DHPH (aa 1972–2342 of human AKAP-Lbc; NP_006729.4); made in house
Description: Homogeneous time-resolved fluorescence (HTRF) assay. It is filed as binding. The settings on record: HTRF; for inhibitory effect on the AKAP-Lbc/DHPH-RhoA interaction: result in words. From the text: Fig 2 The small molecule Scaff10-8 inhibits the interaction of the DH domain of AKAP-Lbc and RhoA. (A). Principle of homogenous time-resolved fluorescence (HTRF) assay. Recombinant His-AKAP-Lbc/DHPH and GST-RhoA were generated. The tags are recognized by specific antibodies coupled to fluorescent dyes. When the two proteins interact, donor and acceptor dyes of the antibodies are in close proximity, energy transfer occurs upon excitation at 320 nm and a FRET signal is detected (665 nm). If a compound disrupts the interaction of the DHPH domain and RhoA, the proximity of the fluorescent moieties remains insufficient for a FRET signal to occur. […] As expected, excess untagged Rho decreases the binding between GST-RhoA and His-AKAP-Lbc/DHPH in a dose-dependent manner (lower left panel). […] (C) The influence of Scaff10-8 on the interaction of RhoA with the recombinant DH domain of AKAP-Lbc in the absence of the PH domain was determined by Alpha screen. […] The IC50 value is indicated.
The assay was essentially carried out as described. Scaff10 derivatives were added to His6-AKAP-Lbc/DHPH protein (250 nM final concentration) in HTRF buffer (PBS; 4 mM MgCl2; 0.05% Tween 20) in 384 well plates (Proxiplate-384 Plus, white, #6008289; Perkin Elmer LAS, Rodgau, Germany). Concentrations of Scaff10 derivatives ranged between 1.56–200 μM (2% DMSO final concentration); HTRF buffer with 2% DMSO served as a control. GST-RhoA (30 nM final concentration) in HTRF buffer and anti-GST antibody coupled to terbium (donor) and anti-His6-tag antibody coupled to XL665 (acceptor) were added to all wells (final antibody concentration: 2 μg/ml). After 1 h incubation at room temperature in the dark, FRET signals were recorded at 620 and 665 nm using a Genios Pro plate reader (Tecan Austria GmbH, Grödig, AT) and the ratios of […] to 620 nm were calculated. Wells containing no compound were set to 100% interaction of AKAP-Lbc/DHPH with RhoA, wells containing GST-RhoA only (without His6-AKAP-Lbc/DHPH) were set to 0% interaction. To exclude any interference of the tags and/or antibodies with Scaff10 derivatives, a His6-GST fusion protein replaced the two tagged proteins in a control assay. Wells containing His6-GST fusion protein were set to 100% interaction of His6-GST, wells containing no fusion protein were set to 0% interaction.
(In general: In TR-FRET formats the signal depends on donor and acceptor labels being close together.)

For series [2], the target named is T3, interaction of the DH domain of AKAP-Lbc and RhoA (Homo sapiens, UniProt P61586).
T3 construct: The proteins used were N-terminally His6-tagged AKAP-Lbc-DH domain
Briefly: Alpha screen assay. It is filed as binding. The settings on record: result in words. As for the experimental part: Assays were performed according to the manufacturer’s protocol (PerkinElmer) with minor modifications. All reagents were diluted in buffer containing 25 mM Hepes, pH 7.4, 100 mM NaCl, 0.1% bovine serum albumin, 0.05% CHAPS and 50 μM GDP and allowed to equilibrate to room temperature before addition to plates. […] The proteins used were N-terminally His6-tagged AKAP-Lbc-DH domain and C-terminally biotinylated RhoA. […] 8 μL of assay buffer containing donor and acceptor beads at 1:400 dilution was then added, the plate was incubated in the dark for 60 min and then read on a PheraStar FS plate reader (BMG Labtech, Germany) using an AlphaScreen^TM 680 excitation/570 emission filter set.
11.6 μL of a solution containing 100 nM RhoA and 200 nM AKAP13 in assay buffer was added and incubated with the compounds for 30 min at RT in foil-sealed plates. 8 μL of assay buffer containing donor and acceptor beads at 1:400 dilution was added. The plate was incubated in the dark for 60 min and then read on a PheraStar FS plate reader.

Series [3] has as its system AQP2 localization in MCD4 cells. Briefly: Immunofluorescence microscopy of AQP2 in MCD4 cells. It is filed as cell-based, mouse. The settings on record: 30 μM.
For series [4] the following is noted: comparison value, no reference given; cited from earlier work.
Another series has as its target T4, GFP-AKAP-Lbc/DHPH (Homo sapiens, UniProt Q12802).
T4 construct: His6-AKAP-Lbc/DHPH (aa 1972–2342 of human AKAP-Lbc; NP_006729.4); made in house; host or cells: HEK293-EBNA cells (transient transfection, pTT5)
T4 sequence (Q12802 1972-2342 isoform Q12802-2): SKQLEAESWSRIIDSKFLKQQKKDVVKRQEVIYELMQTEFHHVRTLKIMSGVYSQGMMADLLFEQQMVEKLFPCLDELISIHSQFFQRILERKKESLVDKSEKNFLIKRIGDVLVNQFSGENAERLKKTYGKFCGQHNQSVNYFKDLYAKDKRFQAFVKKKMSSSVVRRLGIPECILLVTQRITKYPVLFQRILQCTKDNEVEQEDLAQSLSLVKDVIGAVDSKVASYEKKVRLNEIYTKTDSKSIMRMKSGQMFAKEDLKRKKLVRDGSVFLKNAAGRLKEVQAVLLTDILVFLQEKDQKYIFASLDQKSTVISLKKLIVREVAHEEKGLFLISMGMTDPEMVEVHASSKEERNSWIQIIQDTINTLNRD
Briefly: Microscale thermophoresis (MST) with GFP-AKAP-Lbc/DHPH. It is filed as binding. The conditions noted are these: read-out: KD for binding to GFP-AKAP-Lbc/DHPH. As for the experimental part:
as §1, §2

Where [5] appears, read: DMEM + 10 % FCS, plasma or biological fluid, kinetic from dmso stock, 0.3 % DMSO final, read-out: Solubility 0.3 % DMSO.
The mark [6] stands for this setting: DMEM + 10 % FCS, plasma or biological fluid, kinetic from dmso stock, 2 % DMSO final, read-out: Solubility 2 % DMSO.
The mark [7] stands for this setting: IC50 ± SEM, Table 1, '-' = no IC50, inactive (n.d. is used separately in S3 Table).
The mark [8] stands for this setting: Table 1, '-' = no IC50, inactive (n.d. is used separately in S3 Table), read-out: IC50 ± SEM.

Entries after “also recorded” stand apart in the source; their conditions may differ. Like-named read-outs stand apart in the source and are kept apart here.

This is an account of results in PMC5786306, “An AKAP-Lbc-RhoA interaction inhibitor promotes the translocation of aquaporin-2 to the plasma membrane of renal collecting duct principal cells” (PLoS ONE, 2018).

By solubility is commonly meant the dissolved amount per volume that the medium holds. One may read the IC50 as the concentration at which inhibition is half-maximal. By pKa is commonly meant the pH at which an ionisable group is half protonated.

T2 sequence (P61586 whole entry, the tested form may be a part): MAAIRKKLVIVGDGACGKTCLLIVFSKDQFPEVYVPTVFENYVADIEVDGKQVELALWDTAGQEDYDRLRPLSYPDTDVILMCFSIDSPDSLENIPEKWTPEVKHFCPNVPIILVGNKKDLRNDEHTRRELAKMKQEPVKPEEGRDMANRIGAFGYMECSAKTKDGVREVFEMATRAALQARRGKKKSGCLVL
T1 sequence (P61586 whole entry): as the sequence (P61586 whole entry, the tested form may be a part) above
T3 sequence (P61586 whole entry, the tested form may be a part): as above

`Cc1c(CCC(=O)O)c(=O)oc2cc3occ(-c4ccc(Oc5ccccc5)cc4)c3cc12` [Scaff10-38] yielded a Kd on 647-RhoA (KD for binding to 647-RhoA, n = 3–5) of 19.5 ± 4.1 µM. Further, the solubility is over 150 µM in the series “Nephelometric solubility” (setting [5]) and 100 µM in the series “Nephelometric solubility” (setting [6]). Also, 36.7 ± 3.3 µM corresponded to half-maximal inhibition in series [1] (setting [7]) (IC50).
Turning to `COC(=O)CCc1c(C)c2cc3c(-c4ccc(OC)cc4)coc3cc2oc1=O` [Scaff10-48], on 647-RhoA (result in words), the “binding to 647-RhoA” value is on record as “did not bind”. Moreover, the solubility in the series “Nephelometric solubility” (0.3 % DMSO final, read-out: Solubility 0.3 % DMSO) was 75 µM; in the series “Nephelometric solubility” (2 % DMSO final, read-out: Solubility 2 % DMSO) it was 30 µM. Further, the “inhibitory effect on the AKAP-Lbc/DHPH-RhoA interaction” value in series [1] was “complete loss of the inhibitory effect”. The half-maximal inhibitory concentration (IC50) in series [1] (setting [8]) was over 200 µM.
Take `CCOC(=O)CCc1c(C)c2ccc(OCc3ccc(OC)cc3)cc2oc1=O` [Scaff10-59]: the “inhibitory effect in Alpha screen” value in series [2] is reported as “without inhibitory effects”. The solubility in the series “Nephelometric solubility” (setting [5]) was found to be 40 µM; in “Nephelometric solubility” (setting [6]), 30 µM. Further, the “localization of AQP2 in MCD4 cells” value in series [3] was “did not affect the location of AQP2”. Also, the “inhibitory effect on the AKAP-Lbc/DHPH-RhoA interaction” value in series [1] is “did not; also recorded: without inhibitory effects”. Also, the IC50 in series [1] (setting [8]) is over 200 µM.
With `COc1cccc(-c2ccc(C(=O)COc3ccc4c(C)c(CCC(=O)O)c(=O)oc4c3)cc2)c1` [Scaff10-63], the solubility amounted to 75 µM in “Nephelometric solubility” (setting [5]) and 30 µM in the series “Nephelometric solubility” (setting [6]). Also, the IC50 was found to be 24 ± 8 µM in series [1] (IC50 for inhibition of the AKAP-Lbc/DHPH-RhoA interaction, text and figures, ± SEM, n = 3–15 in duplicate); 24.4 ± 8.4 µM in series [1] (setting [7]).
With `COc1cccc(-c2ccc(-c3coc4cc5oc(=O)c(CCC(=O)O)c(C)c5cc34)cc2)c1` [Scaff10-64], the solubility is over 150 µM in “Nephelometric solubility” (setting [5]) and 70 µM in the series “Nephelometric solubility” (setting [6]). This molecule came in with an IC50 in series [1] (setting [7]) of 28.9 ± 9.3 µM.
On to `CC(=O)NO` [acetohydroxamic acid], for which, in series [4], the pKa is 8.7.
With `O=C(O)/C=C/c1ccccc1` [cinnamic acid], the pKa in series [4] is 4.44.
In the case of “untagged RhoA: recombinant untagged RhoA protein used as competitor or ligand”, in the series with GFP-AKAP-Lbc/DHPH, the Kd stood at 42 ± 5 µM.

B1: His-AKAP-Lbc/DHPH: recombinant His-tagged DHPH domain of AKAP-Lbc (protein)
chain: T4 sequence (Q12802 1972-2342 isoform Q12802-2)
modifications: left off: His6, end not stated, kept
For the molecule B1, in the series with 647-RhoA (n = 3–5, read-out: KD for binding to 647-RhoA), the Kd turned out to be 14 ± 4 µM.
